Laboratory results from patent US11958826B1, “6′-(2-chlorophenyl)-2′-ethoxy-3,4′-bipyridine-3′- carbonitrile as an antimicrobial compound” (KING FAISAL UNIVERSITY, priority 2023, dated 2024).

Legend:
Pseudomonas aeruginosa = experiment: Agar plate disc-diffusion, antibacterial activity by inhibition zone; format: cell-based; settings: Pseudomonas aeruginosa (Gram negative)
Description: (§1) The agar plate disc-diffusion method was applied. […] The discs were then placed onto the surface of agar plates (nutrient agar for bacteria and Sabouraud's dextrose agar for fungi) seeded with the test organism. Each plate contained 15 ml of the agar medium, previously seeded with 0.2 mL of the broth culture of each organism pregrown for 18 hours. The plates were incubated at 37° C. for 48 hours and 72 hours for fungi. The inhibition zones were measured in mm. Discs impregnated with DMSO were used as a control, and their inhibition zone was subtracted from the tested compound's actual inhibition zone.
(§2) The results of the antimicrobial testing can be observed in Tables 1 and 2, below, with ciprofloxacin serving as a reference.

Escherichia coli = experiment: as above; format: cell-based; settings: Escherichia coli (Gram negative)
Description: as §1, §2

Staphylococcus aureus = experiment: as above; format: cell-based; settings: Staphylococcus aureus (Gram positive)
Description: as §1, §2

Bacillus Cereus = experiment: as above; format: cell-based; settings: Bacillus Cereus (Gram positive)
Description: as §1, §2

Aspergillus flavus = experiment: Agar plate disc-diffusion, antifungal activity by inhibition zone; format: cell-based
Description: as §1, §2

[1] = system: Chrysosporium keratinophilum; experiment: as above; format: cell-based
Description: as §1, §2

[2] = A = concentration of comp. = 10,000 μL
[3] = B = concentration of comp. = 30.000 μL
[4] = C = concentration of comp. = 50,000 μL

- melting point: 156 to 158 °C
Compound: CCOc1nc(-c2ccccc2Cl)cc(-c2cccnc2)c1C#N [Compound 4, 6′-(2-chlorophenyl)-2′-ethoxy-3,4′-bipyridine-3′-carbonitrile]
- inhibition zone (Pseudomonas aeruginosa; [2]): 25 mm
- inhibition zone (Pseudomonas aeruginosa; [3]): 27 mm
- inhibition zone (Pseudomonas aeruginosa; [4]): 38 mm
- inhibition zone (Escherichia coli; [2]): 26 mm
- inhibition zone (Escherichia coli; [3]): 28 mm
- inhibition zone (Escherichia coli; [4]): 40 mm
- inhibition zone (Staphylococcus aureus; [2]): 18 mm
- inhibition zone (Staphylococcus aureus; [3]): 24 mm
- inhibition zone (Staphylococcus aureus; [4]): 36 mm
- inhibition zone (Bacillus Cereus; [2]): 25 mm
- inhibition zone (Bacillus Cereus; [3]): 27 mm
- inhibition zone (Bacillus Cereus; [4]): 39 mm
- inhibition zone (Aspergillus flavus; [2]): 20 mm
- inhibition zone (Aspergillus flavus; [3]): 24 mm
- inhibition zone (Aspergillus flavus; [4]): 35 mm
- inhibition zone [1, 2]: 25 mm
- inhibition zone [1, 3]: 27 mm
- inhibition zone [1, 4]: 44 mm
